{
  "source": "patent US8557823B2",
  "about": "“Family of PFKFB3 inhibitors with anti-neoplastic activities” (Advanced Cancer Therapeutics, LLC, priority 2007, dated 2013)",
  "test_system": "melanoma (CRL-11174) cells",
  "assay": "In vitro growth inhibition, melanoma line",
  "format": "cell-based",
  "settings": "Homo sapiens",
  "protocol": "The K562, HL-60, MDA-MB231, and melanoma (CRL-11174) human cancer cell lines were purchased from ATCC (American Tissue Type Culture Collection, Manassas, Va., United States of America). HeLa, A549, Lewis Lung Carcinoma, MDA-MB231, and melanoma cells were grown in Dulbecco's Modified Eagle Medium (DMEM) (Hyclone, Logan, Utah, United States of America) supplemented with 10% fetal bovine serum (Hyclone, Logan, Utah, United States of America) and 50 μg/mL gentamicin sulfate (Invitrogen, Carlsbad, Calif., United States of America). The HL-60, K562, and Jurkat cell lines were grown in RPMI-1640 medium (Hyclone, Logan, Utah, United States of America) supplemented with 10% fetal bovine serum and 50 μg/mL gentamicin sulfate. […]\nCells were collected 48 hours post-treatment, and cell number and viability were determined by trypan blue exclusion. […]",
  "data": [
    {"smiles": "O=C(/C=C/c1cccnc1)c1ccncc1", "note": "[Compound 1, 3-(3-pyridinyl)-1-(4-pyridinyl)-2-propen-1-one]", "values": [
      {"measurement": "IC50", "result": 15, "unit": "µM"}
    ]}
  ]
}
